Measurements published in ChEMBL document CHEMBL3991601, “The target landscape of clinical kinase drugs” (Science, 2017).
pKd: −log10 of the molar value. Calls of active or inactive are those of the source.

Columns and labels:
[1] = target: Serine/threonine-protein kinase N2 (Homo sapiens, UniProt Q16513)
[2] = target: T1, NUAK family SNF1-like kinase 2 (Homo sapiens, UniProt Q9H093)
T1 sequence (Q9H093 whole entry): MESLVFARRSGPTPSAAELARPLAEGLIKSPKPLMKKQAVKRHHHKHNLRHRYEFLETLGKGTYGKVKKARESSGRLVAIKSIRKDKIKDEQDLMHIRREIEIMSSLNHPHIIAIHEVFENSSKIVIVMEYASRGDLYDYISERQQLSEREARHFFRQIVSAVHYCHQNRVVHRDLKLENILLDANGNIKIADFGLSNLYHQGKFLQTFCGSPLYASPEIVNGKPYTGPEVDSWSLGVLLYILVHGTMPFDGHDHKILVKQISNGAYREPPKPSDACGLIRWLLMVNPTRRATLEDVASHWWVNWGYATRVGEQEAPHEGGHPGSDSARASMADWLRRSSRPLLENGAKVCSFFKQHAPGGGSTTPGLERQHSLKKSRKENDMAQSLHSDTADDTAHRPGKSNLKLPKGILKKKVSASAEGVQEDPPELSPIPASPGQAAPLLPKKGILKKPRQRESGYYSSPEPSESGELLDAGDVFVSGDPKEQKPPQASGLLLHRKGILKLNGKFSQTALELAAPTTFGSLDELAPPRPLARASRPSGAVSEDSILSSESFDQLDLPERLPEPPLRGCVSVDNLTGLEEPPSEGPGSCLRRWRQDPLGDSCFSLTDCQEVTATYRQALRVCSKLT

[3] = target: Aurora kinase B (Homo sapiens, UniProt Q96GD4)
[4] = target: T2, STE20-related kinase adapter protein alpha (Homo sapiens, UniProt Q7RTN6)
T2 sequence (Q7RTN6 whole entry): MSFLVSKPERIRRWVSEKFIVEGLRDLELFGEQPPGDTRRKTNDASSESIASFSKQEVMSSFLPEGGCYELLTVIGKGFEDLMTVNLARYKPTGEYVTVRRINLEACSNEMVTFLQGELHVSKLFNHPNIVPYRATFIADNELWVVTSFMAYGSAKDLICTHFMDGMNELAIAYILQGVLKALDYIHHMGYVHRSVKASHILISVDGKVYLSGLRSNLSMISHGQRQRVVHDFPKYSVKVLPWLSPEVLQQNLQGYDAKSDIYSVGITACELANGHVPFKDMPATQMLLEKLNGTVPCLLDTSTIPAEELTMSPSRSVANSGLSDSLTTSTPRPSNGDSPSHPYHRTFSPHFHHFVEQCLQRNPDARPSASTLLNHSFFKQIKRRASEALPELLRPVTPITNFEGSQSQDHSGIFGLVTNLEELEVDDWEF

[5] = target: T3, Serine/threonine-protein kinase D3 (Homo sapiens, UniProt O94806)
T3 sequence (O94806 whole entry): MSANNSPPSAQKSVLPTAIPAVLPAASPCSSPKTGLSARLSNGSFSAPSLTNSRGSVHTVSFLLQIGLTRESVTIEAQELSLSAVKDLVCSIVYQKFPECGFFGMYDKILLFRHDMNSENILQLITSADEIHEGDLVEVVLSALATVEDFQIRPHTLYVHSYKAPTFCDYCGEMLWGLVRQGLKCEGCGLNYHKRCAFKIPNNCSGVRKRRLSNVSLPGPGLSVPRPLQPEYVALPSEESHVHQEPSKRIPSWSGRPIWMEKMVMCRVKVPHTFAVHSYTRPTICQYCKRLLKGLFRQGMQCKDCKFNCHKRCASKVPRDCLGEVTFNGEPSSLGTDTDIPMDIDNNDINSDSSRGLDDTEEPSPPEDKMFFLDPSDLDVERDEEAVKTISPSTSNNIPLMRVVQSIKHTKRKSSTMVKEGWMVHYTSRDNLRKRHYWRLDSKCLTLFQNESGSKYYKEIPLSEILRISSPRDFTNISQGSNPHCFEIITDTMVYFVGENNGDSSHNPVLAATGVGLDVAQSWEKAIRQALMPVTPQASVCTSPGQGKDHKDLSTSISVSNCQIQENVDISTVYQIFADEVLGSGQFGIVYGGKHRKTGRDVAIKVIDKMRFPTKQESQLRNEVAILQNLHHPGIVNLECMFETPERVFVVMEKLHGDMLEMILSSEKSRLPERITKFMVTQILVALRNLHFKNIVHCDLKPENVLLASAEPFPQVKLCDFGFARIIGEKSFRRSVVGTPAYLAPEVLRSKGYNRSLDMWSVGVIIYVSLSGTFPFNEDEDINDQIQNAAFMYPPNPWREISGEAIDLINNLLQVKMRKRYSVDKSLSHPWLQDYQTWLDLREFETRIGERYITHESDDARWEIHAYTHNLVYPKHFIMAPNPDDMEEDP

[6] = target: Cyclin-dependent kinase 4 (Homo sapiens, UniProt P11802)
[7] = target: T4, Tyrosine--tRNA ligase, cytoplasmic (Homo sapiens, UniProt P54577)
T4 sequence (P54577 whole entry): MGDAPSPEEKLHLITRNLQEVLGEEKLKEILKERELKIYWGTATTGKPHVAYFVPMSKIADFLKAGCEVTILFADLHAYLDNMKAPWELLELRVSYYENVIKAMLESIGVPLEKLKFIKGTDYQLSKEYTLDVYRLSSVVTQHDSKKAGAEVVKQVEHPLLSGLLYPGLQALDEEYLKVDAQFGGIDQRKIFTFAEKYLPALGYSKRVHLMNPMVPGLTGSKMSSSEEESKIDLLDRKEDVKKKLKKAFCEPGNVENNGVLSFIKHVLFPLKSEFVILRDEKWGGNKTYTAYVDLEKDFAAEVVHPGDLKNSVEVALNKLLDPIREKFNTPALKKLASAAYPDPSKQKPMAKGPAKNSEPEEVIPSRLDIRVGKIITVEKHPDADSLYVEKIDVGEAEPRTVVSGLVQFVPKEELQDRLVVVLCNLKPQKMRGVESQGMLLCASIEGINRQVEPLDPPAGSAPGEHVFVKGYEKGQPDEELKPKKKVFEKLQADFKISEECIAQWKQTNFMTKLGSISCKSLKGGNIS
Also: in the data inactive means no Kd found up to 30 µM.

Sequence of Cyclin-dependent kinase 4 (P11802 whole entry): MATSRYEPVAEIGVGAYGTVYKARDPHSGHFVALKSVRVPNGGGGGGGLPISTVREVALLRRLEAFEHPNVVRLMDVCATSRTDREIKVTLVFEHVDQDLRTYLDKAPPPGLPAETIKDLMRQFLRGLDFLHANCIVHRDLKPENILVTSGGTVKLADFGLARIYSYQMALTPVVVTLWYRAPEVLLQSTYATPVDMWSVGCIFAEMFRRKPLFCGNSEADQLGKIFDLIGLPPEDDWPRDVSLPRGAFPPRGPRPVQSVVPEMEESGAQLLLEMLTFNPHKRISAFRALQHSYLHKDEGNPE
Sequence of Serine/threonine-protein kinase N2 (Q16513 whole entry): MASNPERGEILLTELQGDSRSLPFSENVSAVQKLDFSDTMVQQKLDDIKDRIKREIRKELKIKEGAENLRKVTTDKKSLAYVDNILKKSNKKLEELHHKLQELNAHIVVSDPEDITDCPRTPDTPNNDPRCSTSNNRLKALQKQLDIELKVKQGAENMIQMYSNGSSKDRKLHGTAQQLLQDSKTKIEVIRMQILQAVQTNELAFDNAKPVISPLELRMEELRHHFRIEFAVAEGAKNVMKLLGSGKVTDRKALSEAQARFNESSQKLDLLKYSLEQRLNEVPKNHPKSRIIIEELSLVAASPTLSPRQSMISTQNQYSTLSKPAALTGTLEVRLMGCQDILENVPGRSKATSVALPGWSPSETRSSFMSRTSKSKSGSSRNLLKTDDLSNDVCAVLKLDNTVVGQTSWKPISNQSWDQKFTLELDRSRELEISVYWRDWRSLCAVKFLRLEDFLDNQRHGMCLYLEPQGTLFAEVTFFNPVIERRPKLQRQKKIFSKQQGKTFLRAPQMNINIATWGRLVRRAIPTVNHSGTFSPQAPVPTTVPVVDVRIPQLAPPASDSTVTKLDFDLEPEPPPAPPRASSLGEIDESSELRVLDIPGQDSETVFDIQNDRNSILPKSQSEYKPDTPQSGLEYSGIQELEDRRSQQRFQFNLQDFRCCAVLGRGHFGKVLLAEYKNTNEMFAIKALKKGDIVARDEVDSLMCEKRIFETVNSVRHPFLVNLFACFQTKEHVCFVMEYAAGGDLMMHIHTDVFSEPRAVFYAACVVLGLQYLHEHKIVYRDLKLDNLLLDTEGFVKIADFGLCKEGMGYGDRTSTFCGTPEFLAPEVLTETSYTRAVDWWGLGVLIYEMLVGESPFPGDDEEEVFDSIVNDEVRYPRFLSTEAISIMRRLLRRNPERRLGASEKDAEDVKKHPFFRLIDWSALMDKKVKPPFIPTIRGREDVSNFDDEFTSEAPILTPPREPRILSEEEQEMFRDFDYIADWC
Sequence of Aurora kinase B (Q96GD4 whole entry): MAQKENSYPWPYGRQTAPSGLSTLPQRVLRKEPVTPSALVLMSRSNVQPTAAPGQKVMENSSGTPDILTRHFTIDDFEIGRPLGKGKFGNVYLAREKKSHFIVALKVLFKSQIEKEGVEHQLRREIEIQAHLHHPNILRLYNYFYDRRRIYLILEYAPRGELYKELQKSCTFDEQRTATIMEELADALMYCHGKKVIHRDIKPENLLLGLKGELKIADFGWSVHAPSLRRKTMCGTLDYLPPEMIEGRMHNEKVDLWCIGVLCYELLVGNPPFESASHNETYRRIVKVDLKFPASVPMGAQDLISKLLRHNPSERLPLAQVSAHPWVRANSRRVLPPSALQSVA

Row | SMILES | Kd [1] | Kd [2] | Kd [3] | Kd [4] | Kd [5] | Kd [6] | Kd [7] | pKd [6]
1 | O=c1sn(-c2cccc3ccccc23)c(=O)n1Cc1ccccc1 [TIDEGLUSIB] | > 30 µM (inactive) | > 30 µM (inactive) | > 30 µM (inactive) | > 30 µM (inactive) | > 30 µM (inactive) | > 30 µM (inactive) | > 30 µM (inactive) | –
2 | Cn1cc(-c2ccc3nnc(C(F)(F)c4ccc5ncccc5c4)n3n2)cn1 [JNJ-38877605] | > 30 µM (inactive) | > 30 µM (inactive) | > 30 µM (inactive) | > 30 µM (inactive) | > 30 µM (inactive) | > 30 µM (inactive) | > 30 µM (inactive) | –
3 | Cn1ncc(Cl)c1-c1cc(C(=O)N[C@H](CN)Cc2cccc(F)c2)sc1Cl [AFURESERTIB] | > 30 µM (inactive) | > 30 µM (inactive) | > 30 µM (inactive) | > 30 µM (inactive) | > 30 µM (inactive) | > 30 µM (inactive) | > 30 µM (inactive) | –
4 | CNS(=O)(=O)Nc1nccc(Cc2c(C)c3ccc(Oc4ncccn4)cc3oc2=O)c1F [AVUTOMETINIB] | > 30 µM (inactive) | > 30 µM (inactive) | > 30 µM (inactive) | > 30 µM (inactive) | > 30 µM (inactive) | > 30 µM (inactive) | > 30 µM (inactive) | –
5 | CN(C)C(=O)c1cc2cnc(Nc3ccc(N4CCNCC4)cn3)nc2n1C1CCCC1 [RIBOCICLIB] | > 30 µM (inactive) | > 30 µM (inactive) | > 30 µM (inactive) | > 30 µM (inactive) | > 30 µM (inactive) | – | > 30 µM (inactive) | –
6 | CCc1cnn2c(NCc3ccc[n+]([O-])c3)cc(N3CCCC[C@H]3CCO)nc12 [DINACICLIB] | > 30 µM (inactive) | > 30 µM (inactive) | – | > 30 µM (inactive) | – | – | > 30 µM (inactive) | –
7 | COc1ccc(-c2ccc3c(N4CCOC[C@@H]4C)nc(N4CCOC[C@@H]4C)nc3n2)cc1CO [AZD-8055] | > 30 µM (inactive) | > 30 µM (inactive) | > 30 µM (inactive) | > 30 µM (inactive) | > 30 µM (inactive) | > 30 µM (inactive) | > 30 µM (inactive) | –
8 | COc1cc2nccc(Oc3ccc(NC(=O)Nc4cc(C)on4)c(Cl)c3)c2cc1OC [TIVOZANIB] | > 30 µM (inactive) | > 30 µM (inactive) | – | > 30 µM (inactive) | > 30 µM (inactive) | > 30 µM (inactive) | > 30 µM (inactive) | –
9 | C[C@@H](Nc1cc(F)cc(F)c1)c1cc(C(=O)N(C)C)cc2c(=O)cc(N3CCOCC3)oc12 [AZD-8186] | > 30 µM (inactive) | > 30 µM (inactive) | > 30 µM (inactive) | > 30 µM (inactive) | > 30 µM (inactive) | > 30 µM (inactive) | > 30 µM (inactive) | –
10 | COC(=O)[C@@]1(O)C[C@H]2O[C@]1(C)n1c3ccccc3c3c4c(c5c6ccccc6n2c5c31)C(=O)NC4 [K-252A] | 0.361 µM (active) | > 30 µM (inactive) | 0.353 µM (active) | > 30 µM (inactive) | – | – | > 30 µM (inactive) | 7.85
11 | C=CC(=O)N1CCC(Oc2cc3c(Nc4ccc(Cl)c(Cl)c4F)ncnc3cc2OC)CC1 [POZIOTINIB] | > 30 µM (inactive) | > 30 µM (inactive) | – | > 30 µM (inactive) | > 30 µM (inactive) | > 30 µM (inactive) | > 30 µM (inactive) | –
12 | Cc1cn(-c2cc(NC(=O)c3ccc(C)c(Nc4nccc(-c5cccnc5)n4)c3)cc(C(F)(F)F)c2)cn1 [NILOTINIB] | – | – | – | > 30 µM (inactive) | – | – | > 30 µM (inactive) | –
